Source: patent publication US12532661B2, “Compound and organic light emitting device comprising the same” (LG Chem, Ltd., priority 2020, dated 2026)

Assay: Solubility experiment in cyclohexanone (CHON)
Type: physicochemical
Conditions: normal temperature/pressure, whether 0.1 wt % or more was dissolved
Description: In order to confirm the solubility in the solvent used in the solution process of the compounds prepared in the Preparation Examples and the comparative compounds, each of them was dissolved in the solvent cyclohexanone (CHON) under normal temperature/pressure conditions, and it was confirmed whether 0.1 wt % or more was dissolved.

| Compound | Solubility, Solvent CHON |
| --- | --- |
| Cc1cccc(N(c2ccc3c4c5ccc6c(c5ccc4n(-c4ccccc4)c3c2)c2ccc(N(c3ccc4c5c7ccc8c(c7ccc5n(-c5ccccc5)c4c3)c3ccc(N(c4cccc(C)c4)c4cccc5c4oc4ccccc45)cc3n8-c3ccccc3)c3ccc4c5c7ccc8c(c7ccc5n(-c5ccccc5)c4c3)c3ccc(N(c4cccc(C)c4)c4cccc5c4oc4ccccc45)cc3n8-c3ccccc3)cc2n6-c2ccccc2)c2cccc3c2oc2ccccc23)c1 [Compound 1] | ○ (Evaluation list (○): 0.1 wt. % or more soluble) |
| c1ccc(-n2c3ccccc3c3cc(-c4ccc(N(c5ccc6ccccc6c5)c5ccc6c7c8ccc9c(c8ccc7n(-c7ccccc7)c6c5)c5ccc(N(c6ccc7c8c%10ccc%11c(c%10ccc8n(-c8ccccc8)c7c6)c6ccc(N(c7ccc(-c8ccc%10c(c8)c8ccccc8n%10-c8ccccc8)cc7)c7ccc8ccccc8c7)cc6n%11-c6ccccc6)c6ccc7c8c%10ccc%11c(c%10ccc8n(-c8ccccc8)c7c6)c6ccc(N(c7ccc(-c8ccc%10c(c8)c8ccccc8n%10-c8ccccc8)cc7)c7ccc8ccccc8c7)cc6n%11-c6ccccc6)cc5n9-c5ccccc5)cc4)ccc32)cc1 [Compound 3] | ○ (Evaluation list (○): 0.1 wt. % or more soluble) |
| Cc1cccc(N(c2ccc3c4c5ccc6c(c5ccc4n(-c4ccccc4)c3c2)c2ccc(-c3cc(-c4ccc5c7c8ccc9c(c8ccc7n(-c7ccccc7)c5c4)c4ccc(N(c5cccc(C)c5)c5cccc7c5oc5ccccc57)cc4n9-c4ccccc4)cc(-c4ccc5c7c8ccc9c(c8ccc7n(-c7ccccc7)c5c4)c4ccc(N(c5cccc(C)c5)c5cccc7c5oc5ccccc57)cc4n9-c4ccccc4)c3)cc2n6-c2ccccc2)c2cccc3c2oc2ccccc23)c1 [Compound 4] | ○ (Evaluation list (○): 0.1 wt. % or more soluble) |
| CC(C)(C)c1ccc(N(c2ccc(C(C)(C)C)cc2)c2ccc3c4c5ccc6c(c5ccc4n(-c4ccccc4)c3c2)c2ccc(-c3cc(-c4ccc5c7c8ccc9c(c8ccc7n(-c7ccccc7)c5c4)c4ccc(N(c5ccc(C(C)(C)C)cc5)c5ccc(C(C)(C)C)cc5)cc4n9-c4ccccc4)cc(-c4ccc5c7c8ccc9c(c8ccc7n(-c7ccccc7)c5c4)c4ccc(N(c5ccc(C(C)(C)C)cc5)c5ccc(C(C)(C)C)cc5)cc4n9-c4ccccc4)c3)cc2n6-c2ccccc2)cc1 [Compound 5] | ○ (Evaluation list (○): 0.1 wt. % or more soluble) |
| CC(C)(C)c1ccc(N(c2ccc(C(C)(C)C)cc2)c2ccc3c4c5ccc6c(c5ccc4n(-c4ccccc4)c3c2)c2ccc(N(c3ccc(C(C)(C)C)cc3)c3cc(N(c4ccc(C(C)(C)C)cc4)c4ccc5c7c8ccc9c(c8ccc7n(-c7ccccc7)c5c4)c4ccc(N(c5ccc(C(C)(C)C)cc5)c5ccc(C(C)(C)C)cc5)cc4n9-c4ccccc4)cc(N(c4ccc(C(C)(C)C)cc4)c4ccc5c7c8ccc9c(c8ccc7n(-c7ccccc7)c5c4)c4ccc(N(c5ccc(C(C)(C)C)cc5)c5ccc(C(C)(C)C)cc5)cc4n9-c4ccccc4)c3)cc2n6-c2ccccc2)cc1 [Compound 12] | ○ (Evaluation list (○): 0.1 wt. % or more soluble) |
| Cc1cccc(N(c2ccc3c4c5ccc6c(c5ccc4n(-c4ccccc4)c3c2)c2ccc(Oc3cc(Oc4ccc5c7c8ccc9c(c8ccc7n(-c7ccccc7)c5c4)c4ccc(N(c5cccc(C)c5)c5cccc7c5oc5ccccc57)cc4n9-c4ccccc4)cc(Oc4ccc5c7c8ccc9c(c8ccc7n(-c7ccccc7)c5c4)c4ccc(N(c5cccc(C)c5)c5cccc7c5oc5ccccc57)cc4n9-c4ccccc4)c3)cc2n6-c2ccccc2)c2cccc3c2oc2ccccc23)c1 [Compound 14] | ○ (Evaluation list (○): 0.1 wt. % or more soluble) |
| Cc1cccc(N(c2ccc3c4c5ccc6c(c5ccc4n(-c4ccccc4)c3c2)c2ccc(Oc3cccc(-c4cc(-c5cccc(Oc7ccc8c9c%10ccc%11c(c%10ccc9n(-c9ccccc9)c8c7)c7ccc(N(c8cccc(C)c8)c8cccc9c8oc8ccccc89)cc7n%11-c7ccccc7)c5)cc(-c5cccc(Oc7ccc8c9c%10ccc%11c(c%10ccc9n(-c9ccccc9)c8c7)c7ccc(N(c8cccc(C)c8)c8cccc9c8oc8ccccc89)cc7n%11-c7ccccc7)c5)c4)c3)cc2n6-c2ccccc2)c2cccc3c2oc2ccccc23)c1 [Compound 15] | ○ (Evaluation list (○): 0.1 wt. % or more soluble) |
| Cc1cccc(N(c2ccc3c4c5ccc6c(c5ccc4n(-c4ccccc4)c3c2)c2ccc(Oc3ccc(-c4cc(-c5ccc(Oc7ccc8c9c%10ccc%11c(c%10ccc9n(-c9ccccc9)c8c7)c7ccc(N(c8cccc(C)c8)c8cccc9c8oc8ccccc89)cc7n%11-c7ccccc7)cc5)cc(-c5ccc(Oc7ccc8c9c%10ccc%11c(c%10ccc9n(-c9ccccc9)c8c7)c7ccc(N(c8cccc(C)c8)c8cccc9c8oc8ccccc89)cc7n%11-c7ccccc7)cc5)c4)cc3)cc2n6-c2ccccc2)c2cccc3c2oc2ccccc23)c1 [Compound 16] | ○ (Evaluation list (○): 0.1 wt. % or more soluble) |
| Cc1cccc(N(c2ccc3c(c2)c2c4ccc5c(c4ccc2n3-c2ccccc2)c2cc(N(c3ccc4c(c3)c3c6ccc7c(c6ccc3n4-c3ccccc3)c3cc(N(c4cccc(C)c4)c4cccc6c4oc4ccccc46)ccc3n7-c3ccccc3)c3ccc4c(c3)c3c6ccc7c(c6ccc3n4-c3ccccc3)c3cc(N(c4cccc(C)c4)c4cccc6c4oc4ccccc46)ccc3n7-c3ccccc3)ccc2n5-c2ccccc2)c2cccc3c2oc2ccccc23)c1 [Compound 17] | ○ (Evaluation list (○): 0.1 wt. % or more soluble) |
| Cc1cccc(N(c2cccc3c2oc2ccccc23)c2cccc3c2c2c4ccc5c(c4ccc2n3-c2ccccc2)c2c(N(c3cccc4c3c3c6ccc7c(c6ccc3n4-c3ccccc3)c3c(N(c4cccc(C)c4)c4cccc6c4oc4ccccc46)cccc3n7-c3ccccc3)c3cccc4c3c3c6ccc7c(c6ccc3n4-c3ccccc3)c3c(N(c4cccc(C)c4)c4cccc6c4oc4ccccc46)cccc3n7-c3ccccc3)cccc2n5-c2ccccc2)c1 [Compound 19] | ○ (Evaluation list (○): 0.1 wt. % or more soluble) |
